Results from patent publication US6858644B2, “Paclitaxel solvates” (Bristol-Myers Squibb Co., priority 2001, dated 2005).

Key:
[1] = Hygroscopicity and solid-form stability of paclitaxel crystal forms; type: physicochemical

Q: For `CC(=O)O[C@H]1C(=O)[C@@]2(C)[C@H]([C@H](OC(=O)c3ccccc3)[C@]3(O)C[C@H](OC(=O)[C@H](O)[C@@H](NC(=O)c4ccccc4)c4ccccc4)C(C)=C1C3(C)C)[C@]1(OC(C)=O)CO[C@@H]1C[C@@H]2O` [Form A, Paclitaxel], which water solubility is on record?
A: The water solubility was “highly water insoluble”.

Q: And the “conversion of crystal form” value ([1]; Form A: relative humidity greater than about 90% or aqueous suspensions, Form D: relatively high humidity)?
A: Its value is “converts (as a function of time, temperature, agitation, etc.) to a thermodynamically more stable form”.

Q: And the hygroscopicity ([1]; normal laboratory conditions (RH approximately 50-60%; 20-30° C.))?
A: The hygroscopicity was “substantially non-hygroscopic”.

Q: For `CC(=O)OC1C(=O)C2(C)C(O)CC3OCC3(OC(C)=O)C2C(OC(=O)c2ccccc2)C2(O)CC(OC(=O)C(O)C(NC(=O)c3ccccc3)c3ccccc3)C(C)=C1C2(C)C.O.O.O` (stereo not shown) [Form B], which water solubility is on record?
A: Its water solubility is “even less water soluble than Form A”.
